Measured values: ChEMBL document CHEMBL1201862, “PubChem BioAssay data set” (2004)
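These data come from cells grown in 96-well plates and exposed to compound for 48 hours at five concentrations. GI50 marks 50% less growth.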 Active and inactive are the calls of the source. Rule as the data show it: active = GI50 up to about 1.1 µM and inactive = higher.

Experiments:
Assay in all cases: growth of human tumour cells (NCI), 48 h
HOP-62 = system: HOP-62
OVCAR-8 = system: OVCAR-8
K562 = system: K562
COLO 205 = system: COLO 205
SN12C = system: SN12C
SW-620 = system: SW-620
U-251 = system: U-251
OVCAR-5 = system: OVCAR-5
SK-OV-3 = system: SK-OV-3
SNB-19 = system: SNB-19
IGROV-1 = system: IGROV-1
HOP-92 = system: HOP-92
NCI-H226 = system: NCI-H226
A549 = system: A549
OVCAR-3 = system: OVCAR-3
NCI-H522 = system: NCI-H522
A498 = system: A498
MCF7 = system: MCF7
KM12 = system: KM12
MOLT-4 = system: MOLT-4

| SMILES | GI50 (HOP-62) | GI50 (OVCAR-8) | GI50 (K562) | GI50 (COLO 205) | GI50 (SN12C) | GI50 (SW-620) | GI50 (U-251) | GI50 (OVCAR-5) | GI50 (SK-OV-3) | GI50 (SNB-19) | GI50 (IGROV-1) | GI50 (HOP-92) | GI50 (NCI-H226) | GI50 (A549) | GI50 (OVCAR-3) | GI50 (NCI-H522) | GI50 (A498) | GI50 (MCF7) | GI50 (KM12) | GI50 (MOLT-4) |
| --- | --- | --- | --- | --- | --- | --- | --- | --- | --- | --- | --- | --- | --- | --- | --- | --- | --- | --- | --- | --- |
| O=C(Nc1nc2c(=O)[nH]cnc2s1)c1ccccc1 | > 100 µM (inactive) | > 100 µM (inactive) | 62.5 µM (inactive) | > 100 µM (inactive) | > 100 µM (inactive) | > 100 µM (inactive) | > 100 µM (inactive) | > 100 µM (inactive) | > 100 µM (inactive) | > 100 µM (inactive) | 71.8 µM (inactive) | 49.1 µM (inactive) | > 100 µM (inactive) | 81.7 µM (inactive) | > 100 µM (inactive) | > 100 µM (inactive) | 83.4 µM (inactive) | 45.6 µM (inactive) |  |  |
| Cc1ccc(S(=O)(=O)N(c2ccccc2F)C2CCCCC2O)cc1 (stereo not given) | 96.2 µM (inactive) | 78 µM (inactive) | 42.2 µM (inactive) | 27.2 µM (inactive) | 56.9 µM (inactive) | 64.4 µM (inactive) | 46.6 µM (inactive) | > 100 µM (inactive) | 22.3 µM (inactive) | > 100 µM (inactive) |  |  | > 100 µM (inactive) | 35.2 µM (inactive) | 29.5 µM (inactive) |  | 38.1 µM (inactive) | 21.7 µM (inactive) | 33.1 µM (inactive) |  |
| COc1cc([C@@H]2c3cc4c(cc3[C@@H](Nc3ccc(Cl)cc3C(=O)c3ccccc3Cl)[C@H]3COC(=O)[C@H]23)OCO4)cc(OC)c1OC | 0.443 µM (active) | 0.152 µM (active) | 0.106 µM (active) | 0.267 µM (active) | 0.371 µM (active) | 0.122 µM (active) | 0.0998 µM (active) |  | 1.19 µM (inactive) | 0.174 µM (active) | 0.261 µM (active) |  | 0.0294 µM (active) | 0.34 µM (active) | 0.332 µM (active) | 0.0685 µM (active) | 0.0989 µM (active) | 0.111 µM (active) | 0.091 µM (active) | 0.142 µM (active) |
| CC1(C)C2CCC1(C)[C@H](O)[C@H]2Nc1cc(C(F)(F)F)cc(C(F)(F)F)c1 (stereo not given in full) | 5.48 µM (inactive) | 3.21 µM (inactive) | 2.79 µM (inactive) | 1.79 µM (inactive) |  | 3.36 µM (inactive) | 4.15 µM (inactive) | 7.41 µM (inactive) | 3.88 µM (inactive) | 4.48 µM (inactive) | 4.74 µM (inactive) |  | 6.5 µM (inactive) | 3.7 µM (inactive) | 2.24 µM (inactive) |  | > 100 µM (inactive) | > 100 µM (inactive) | 2.88 µM (inactive) | 2.19 µM (inactive) |
| COc1cccc(CCn2c(N)c(C#N)c3ccc([N+](=O)[O-])cc3c2=O)c1 | > 31.6 µM (inactive) | > 46.5 µM (inactive) | 0.283 µM (active) | > 100 µM (inactive) | > 100 µM (inactive) | > 100 µM (inactive) | > 100 µM (inactive) | > 31.6 µM (inactive) | > 31.6 µM (inactive) | 98.2 µM (inactive) | > 31.6 µM (inactive) | > 31.6 µM (inactive) | > 31.6 µM (inactive) | > 46.5 µM (inactive) | > 31.6 µM (inactive) |  | > 100 µM (inactive) | > 31.6 µM (inactive) | > 31.6 µM (inactive) | > 31.6 µM (inactive) |
| CC1=CCC2CC1C(C(=O)c1c[nH]c3ccccc13)=NC2(C)C (stereo not given) | > 100 µM (inactive) | 56.5 µM (inactive) | 34 µM (inactive) | 52.2 µM (inactive) | 87.9 µM (inactive) | 76 µM (inactive) | 34.5 µM (inactive) | > 100 µM (inactive) | 94.4 µM (inactive) | > 100 µM (inactive) | > 100 µM (inactive) |  | > 100 µM (inactive) | 61 µM (inactive) | > 100 µM (inactive) | 44.4 µM (inactive) | > 100 µM (inactive) | 54.6 µM (inactive) | 52.4 µM (inactive) | 22.9 µM (inactive) |
| O=c1cnn(C/C=C\CO)c(=O)[nH]1 | > 100 µM (inactive) | > 100 µM (inactive) | > 100 µM (inactive) | > 100 µM (inactive) | > 100 µM (inactive) | > 100 µM (inactive) | > 100 µM (inactive) | > 100 µM (inactive) |  | > 100 µM (inactive) | > 100 µM (inactive) | > 100 µM (inactive) | > 100 µM (inactive) | > 100 µM (inactive) | > 100 µM (inactive) | > 100 µM (inactive) | > 100 µM (inactive) | > 100 µM (inactive) | > 100 µM (inactive) |  |
| C[C@]12CC[C@H](OC(=O)Cc3ccc(N(CCCl)CCCl)cc3)CC1=CC[C@@H]1[C@@H]2CC[C@]2(C)C(=O)CC[C@@H]12 | > 100 µM (inactive) | > 100 µM (inactive) | > 100 µM (inactive) | > 100 µM (inactive) | > 100 µM (inactive) | > 100 µM (inactive) | > 100 µM (inactive) | > 100 µM (inactive) |  | > 100 µM (inactive) | > 100 µM (inactive) | > 100 µM (inactive) | > 100 µM (inactive) | > 100 µM (inactive) | > 100 µM (inactive) | > 100 µM (inactive) | > 100 µM (inactive) | > 100 µM (inactive) | > 100 µM (inactive) | > 100 µM (inactive) |
| CCC1C(=O)C[C@H]2[C@@H]3C(O)CC4=CC(=O)CC[C@]4(C)[C@H]3CC[C@]12C (stereo not given in full) | > 50 µM (inactive) | > 50 µM (inactive) | > 50 µM (inactive) | > 50 µM (inactive) | > 50 µM (inactive) | > 50 µM (inactive) | > 50 µM (inactive) | > 50 µM (inactive) | > 50 µM (inactive) | > 50 µM (inactive) | > 50 µM (inactive) | > 50 µM (inactive) |  | > 50 µM (inactive) | > 50 µM (inactive) | > 50 µM (inactive) | > 50 µM (inactive) | > 50 µM (inactive) | > 50 µM (inactive) | > 50 µM (inactive) |
| C/C(CC(O)(C(F)(F)F)C(F)(F)F)=N/Nc1ccc([N+](=O)[O-])cc1[N+](=O)[O-] | 2.99 µM (inactive) | 3 µM (inactive) | 2.44 µM (inactive) | 2.05 µM (inactive) | 3.7 µM (inactive) | 3.44 µM (inactive) | 2.67 µM (inactive) |  | 2.33 µM (inactive) | 3.27 µM (inactive) | 4.15 µM (inactive) | 1.8 µM (inactive) | 2.06 µM (inactive) | 2.54 µM (inactive) | 1.96 µM (inactive) | 2.07 µM (inactive) | 2.39 µM (inactive) | 2.97 µM (inactive) | 3.21 µM (inactive) | 4.4 µM (inactive) |
| COc1ccc2nc3c(C(=O)NCCN(C)C)cccc3cc2c1 | 2.63 µM (inactive) | 1.47 µM (inactive) | 3.07 µM (inactive) | 0.893 µM (active) | 1.75 µM (inactive) | 1.42 µM (inactive) | 3.48 µM (inactive) | 2.1 µM (inactive) | 2.21 µM (inactive) | 2.23 µM (inactive) | 2.03 µM (inactive) | 2.28 µM (inactive) | 1.44 µM (inactive) | 1.49 µM (inactive) |  |  | 1.36 µM (inactive) | 1.35 µM (inactive) | 2.96 µM (inactive) | 0.569 µM (active) |
